Our source for the IC50 values is patent US10550113B2, “2-phenyl-3H-imidazo[4,5-B]pyridine derivates useful as inhibitors of mammalian tyrosine kinase ROR1 activity” (Kancera AB, priority 2015, dated 2020).

For series [1], the system named is PBMC from CLL patients. Briefly: CellTiter-Blue cell viability assay, cell toxicity in PBMC from CLL patients. It counts as cell-based. The following applies: Homo sapiens, 50 000 cells/well, cultured 24, 48 and 72 h (time of the IC50 not stated), % cytotoxicity vs 0.2% DMSO. The procedure:
(§1) Method for Measurement of Cell Toxicity
(§2) The CellTiter-Blue® Cell Viability Assay provides a homogeneous, fluorometric method for estimating the number of viable cells present in multi-well plates. The assay uses the indicator dye resazurin to measure the metabolic capacity of cells. Viable cells retain the ability to reduce resazurin into resorufin, which is highly fluorescent.
(§3) Stock solutions (10 or 100 mM in DMSO) of compounds were serially diluted 1:2 in 11 concentrations and 25 nL/well (100 mM stock) or 50 nL/well (10 mM stock) were acoustically dispensed in assay plates with an EDC acoustic dispenser. Final starting concentration in the assay was 20 μM (0.2% DMSO) or 100 μM (0.1% DMSO) for test compounds.
(§4) Peripheral blood mononuclear cells (PBMC) from CLL patients or healthy volunteers were seeded in assay plates (384-well black/clear, Greiner #781091) pre-dispensed with compounds, 25 μL/well, and cultured for 24, 48 and 72 h. The cell concentration was 50 000 cells/well for PBMC from CLL patients or healthy volunteers. After 24, 48 and 72 h culture, Celltiter Blue reagent was added (5 μL/well) and the plates were incubated for 2 h. The plates were read in an Envision fluorescence reader (PerkinElmer) with Ex544 nm/Em590 nm. Results were calculated as % cytotoxicity compared to background (cells treated with 0.2% DMSO).
(§5) Thus, IC50 values for cell toxicity in PBMC from CLL patients as well as healthy volunteers for some compounds of the invention are shown in Table 3.
On the technique in general: Alamar Blue is a resazurin reagent that responds to reducing activity.

Series [2] is described as follows: CellTiter-Blue cell viability assay, cell toxicity in PBMC from healthy volunteers. Format: cell-based. To be noted: human, 50 000 cells/well, cultured 24, 48 and 72 h (time of the IC50 not stated), % cytotoxicity vs 0.2% DMSO. How it is done:
as §1, §2, §3, §4, §5

The structures appear in SMILES notation.

As a reminder, the IC50 is the point on the concentration scale where inhibition reaches its midpoint. With `CNC(=O)COc1ccc(-c2nc3c(NC4CCN(Cc5ccc(C)cc5)CC4)c(Cl)cnc3[nH]2)cc1` [Example 82, 2-[4-(6-chloro-7-{[1-(4-methylbeiizyl)piperidin-4-yl]amino}-3H-imidazo[4,5-b]pyridin-2-yl)phenoxy]-N-methylacetamide], the IC50 in series [1] was 480 nM; in series [2], greater than 20000 nM.
For the compound `CNC(=O)COc1ccc(-c2nc3c(NC4CCN(Cc5ccccc5)CC4)c(Cl)cnc3[nH]2)cc1` [Example 11, 2-(4-{7-[(1-benzylpiperidin-4-yl)amino]-6-chloro-3H-imidazo[4,5-b]pyridin-2-yl}phenoxy)-N-methylacetamide], the IC50 in series [1] was 440 nM; in series [2] it was 14800 nM.
On to `CNC(=O)CCNc1ccc(-c2nc3c(NC4CCN(C)CC4)c(Cl)cnc3[nH]2)cc1` [Example 302, N^3-(4-{6-chloro-7-[(1-methylpiperidin-4-yl)amino]-3H-imidazo[4,5-b]pyridin-2-yl}phenyl)-N-methyl-b-alaninamide], for which the IC50 is 620 nM in series [1] and greater than 20000 nM in series [2].
On the same counts, the results for `CNC(=O)COc1ccc(-c2nc3c(NC4CCN(C)CC4)c(Br)cnc3[nH]2)c(C)c1` [Example 159, 2-(4-{6-bromo-7-[(1-methylpiperidin-4-yl)amino]-3H-imidazo[4,5-b]pyridin-2-yl}-3-methylphenoxy)-N-methylacetamide] are 310 nM and greater than 20000 nM.
The corresponding values for `CNC(=O)COc1ccc(-c2nc3c(N[C@H]4CCN(Cc5ccc(OC)cc5)C4)c(Cl)cnc3[nH]2)cc1` [Example 43, 2-[4-(6-chloro-7-{[(3S)-1-(4-methoxybenzyl)pyrrolidin-3-yl]amino}-3H-imidazo[4,5-b]pyridin-2-yl)phenoxy]-N-methylacetamide] are 1740 nM and greater than 20000 nM.
Regarding `CN(C)CCNC(=O)COc1ccc(-c2nc3c(NC4CCN(CCc5ccccc5)CC4)c(Cl)cnc3[nH]2)cc1` [Example 3, 2-[4-(6-chloro-7-{[1-(2-phenylethyl)piperidin-4-yl]amino}-3H-imidazo[4,5-b]pyridin-2-yl)phenoxy]-N-[2-(dimethylamino)ethyl]acetamide], the IC50 in series [1] was 1200 nM; in series [2] it was 9900 nM.
On the same counts, the results for `CNC(=O)COc1ccc(-c2nc3c(NC4CCN(Cc5ccc(-n6cncn6)cc5)CC4)c(Cl)cnc3[nH]2)cc1` [Example 99, 2-{4-[6-chloro-7-({1-[4-(1H-1,2,4-triazol-1-yl)benzyl]piperidin-4-yl}amino)-3H-imidazo[4,5-b]pyridin-2-yl]phenoxy}-N-methylacetamide] are 270 nM and greater than 20000 nM.
`CN(C)CCNC(=O)COc1ccc(-c2nc3c(N[C@H]4CCN(Cc5ccccc5)C4)c(Cl)cnc3[nH]2)cc1` [Example 2, 2-[4-(7-{[(3S)-1-benzylpyrrolidin-3-yl]amino}-6-chloro-3H-imidazo[4,5-b]pyridin-2-yl)phenoxy]-N-[2-(dimethylamino)ethyl]acetamide]: the IC50 in series [1] was 1300 nM; in series [2], 13800 nM.
Take `CNC(=O)COc1cccc(-c2nc3c(NC4CCN(C)CC4)c(Cl)cnc3[nH]2)c1` [Example 117, 2-(3-{6-chloro-7-[(1-methylpiperidin-4-yl)amino]-3H-imidazo[4,5-b]pyridin-2-yl}phenoxy)-N-methylacetamide]: the IC50 was 320 nM in series [1] and greater than 20000 nM in series [2].
On the same counts, the results for `CNC(=O)CNc1ccc(-c2nc3c(NC4CCN(C)CC4)c(Cl)cnc3[nH]2)cc1` [Example 294, N^2-(4-(6-chloro-7-[(1-methylpiperidin-4-yl)amino]-3H-imidazo[4,5-b]pyridin-2-yl}phenyl)-N-methylglycinamide] are 360 nM and greater than 20000 nM.
For the compound `CNC(=O)COc1ccc(-c2nc3c(NC4CCN(Cc5ccc(NC(C)=O)cc5)CC4)c(Cl)cnc3[nH]2)cc1` [Example 75, 2-[4-(7-{[1-(4-acetamidobenzyl)piperidin-4-yl]amino}-6-chloro-3H-imidazo[4,5-b]pyridin-2-yl)phenoxy]-N-methylacetamide], the IC50 is 1120 nM in series [1] and greater than 20000 nM in series [2].
In the case of `Cc1ccc(CN2CCC(Nc3c(Cl)cnc4[nH]c(-c5ccc(OCC(=O)NCC(C)(C)N(C)C)cc5)nc34)CC2)cc1` [Example 27, 2-[4-(6-chloro-7-{[1-(4-methylbenzyl)piperidin-4-yl]amino}-3H-imidazo[4,5-b]pyridin-2-yl)phenoxy]-N-[2-(dimethylamino)-2-methylpropyl]acetamide], the IC50 stood at 1420 nM in series [1] and 14100 nM in series [2].
Consider `CN1CCC(Nc2c(Br)cnc3[nH]c(-c4ccc(OCC(=O)NC5CCCC5)cc4)nc23)CC1` [Example 259, 2-(4-{6-bromo-7-[(1-methylpiperidin-4-yl)amino]-3H-imidazo[4,5-b]pyridin-2-yl}phenoxy)-N-cyclopentylacetamide], for which the IC50 worked out at 33 nM in series [1] and 11100 nM in series [2].
On the same counts, the results for `CC(=O)NCCOc1ccc(-c2nc3c(NC4CCN(C)CC4)c(Cl)cnc3[nH]2)cc1` [Example 265, N-[2-(4-{6-chloro-7-[(1-methylpiperidin-4-yl)amino]-3H-imidazo[4,5-b]pyridin-2-yl}phenoxy)ethyl] acetamide] are 260 nM and greater than 20000 nM.
On to `CN1CCC(Nc2c(Cl)cnc3[nH]c(-c4ccc(OCCNC(=O)c5ccncc5)cc4)nc23)CC1` [Example 272, N-[2-(4-{6-chloro-7-[(1-methylpiperidin-4-yl)amino]-3H-imidazo[4,5-b]pyridin-2-yl}phenoxy)ethyl]pyridine-4-carboxamide], for which the values for the IC50 in series [1] and in series [2] were 250 nM and greater than 20000 nM, respectively.
`CNC(=O)COc1ccc(-c2nc3c(N[C@H]4CCN(Cc5ccc(F)c(F)c5)C4)c(Cl)cnc3[nH]2)cc1` [Example 34, 2-[4-(6-chloro-7-{[(3S)-1-(3,4-difluorobenzyl)pyrrolidin-3-yl]amino}-3H-imidazo[4,5-b]pyridin-2-yl)phenoxy]-N-methylacetamide]: the IC50 in series [1] was found to be 3110 nM; in series [2], 17700 nM.
For `CN(C)CCNC(=O)COc1ccc(-c2nc3c(NC4CCN(Cc5ccsc5)CC4)c(Cl)cnc3[nH]2)cc1` [Example 15, 2-[4-(6-chloro-7-{[1-(thiophen-3-ylmethyl)piperidin-4-yl]amino}-3H-imidazo[4,5-b]pyridin-2-yl)phenoxy]-N-[2-(dimethylamino)ethyl]acetamide], the IC50 in series [1] was 790 nM; in series [2], 13900 nM.
